In US20180220646A1, “AMS-Free Adjuvants for Water Conditioning and Agricultural Formulations” (RHODIA OPERATIONS, priority 2017, published 2018):

Experiments:
Test in all cases: Field plot weed control study, % control
Assay type in all cases: in vivo
Conditions in all cases: adjuvant use rate 1.0% wt/wt with glyphosate baseline
Amaranthus sp. (LIUSS) = system: Amaranthus sp. (LIUSS)
Protocol: (§1) The efficacy evaluation was conducted by a field plot study with selected weeds. They are Linum sp. (AMSS), Amaranthus sp. (LIUSS), Helianthus sp. (HELSS), and Zea mays (ZEAMX). The field plot size is 400 square feet (10×40 ft), with three replications arranged in a randomized complete block design. Soil description: 15.3% sand, 53.9% silt, and 30.8% clay; Organic material content: 6.2%; pH: 7.5.
(§2) Product application was made using a backpack spray device, Blackout. Operation pressure: 40 psi. Nozzle: TT 11001; Spray volute: 8.5 gallon/acre.
(§3) Environmental condition during application: Air temperature—87 degree F.; Relative humidity—39%; Wind—NE, 5 mph; Soil temperature—71 degree F.; Cloud cover—50%.
(§4) Weeds were evaluated for percent control at 14 days and 28 days following application.
(§5) Sliding rating scale used: 0 indicating no control, up to 100 indicating complete control of weed species as compared to the untreated check.

Helianthus sp. (HELSS) = system: Helianthus sp. (HELSS)
Protocol: as §1, §2, §3, §4, §5

Linum sp. (AMSS) = system: Linum sp. (AMSS)
Protocol: as §1, §2, §3, §4, §5

Zea mays (ZEAMX) = system: Zea mays (ZEAMX)
Protocol: as §1, §2, §3, §4, §5

Row | Compound | % Control at 14 days LIUSS (Amaranthus sp. (LIUSS)) [%] | % Control at 28 days LIUSS (Amaranthus sp. (LIUSS)) [%] | % Control at 14 days HELSS (Helianthus sp. (HELSS)) [%] | % Control at 28 days HELSS (Helianthus sp. (HELSS)) [%] | % Control at 14 days AMSS (Linum sp. (AMSS)) [%] | % Control at 28 days AMSS (Linum sp. (AMSS)) [%] | % Control at 14 days ZEAMX (Zea mays (ZEAMX)) [%] | % Control at 28 days ZEAMX (Zea mays (ZEAMX)) [%]
1 | Choline salt of Sulfuric Acid | 40 | 43.3 | 88.3 | 95 | 70 | 70 | 55 | 83.3
2 | Choline Citrate | 71.7 | 86.7 | 89.3 | 95 | 61.7 | 63.3 | 68.3 | 90
3 | C[N+](C)(C)C.C[N+](C)(C)C.O=S(=O)([O-])[O-] [Tetramethylamine Sulfate] | 46.7 | 46.7 | 86.7 | 85 | 51.7 | 58.3 | 56.7 | 85
4 | Choline etidronic acid | 76 | 80 | 91.7 | 84 | 70 | 70 | 65 | 66.7
